Here are results for 24 compounds from patent publication US12528761B2, “Thyromimetics” (Autobahn Therapeutics, Inc., priority 2020, dated 2026).

One assay concerns the target T1, TRβ (Homo sapiens, UniProt P10828).
T1 construct: expressed in transfected cells; host or cells: HEK293
T1 sequence (P10828 217-461 limits assumed): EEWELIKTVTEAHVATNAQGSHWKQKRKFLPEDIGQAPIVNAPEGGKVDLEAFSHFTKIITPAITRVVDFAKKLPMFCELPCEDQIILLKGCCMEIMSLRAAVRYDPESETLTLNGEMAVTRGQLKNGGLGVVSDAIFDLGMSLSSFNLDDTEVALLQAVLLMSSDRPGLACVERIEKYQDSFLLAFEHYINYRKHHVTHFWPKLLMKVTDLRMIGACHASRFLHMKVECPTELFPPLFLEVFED
Description: TR reporter-gene assay (Gal4 DBD hybrid, luciferase), TRβ. As to conditions: for EC50: HEK293-derived reporter cells, 24 hr treatment, read-out: TRβ EC50; for T3-SI (selectivity index, EC50 (TRα)/EC50 (TRβ)): class symbols. It counts as cell-based. The essentials:
(§1)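 HEK293 reporter cells expressing Gal4-DBD/TR ligand-binding hybrids driving firefly luciferase from a Gal4 UAS; cells pre-incubated 6 h, then treated 24 h at 37 °C in medium with 10% charcoal-stripped FBS (final DMSO 0.1–0.4%), in duplicate. Read-out was luminescence (RLU).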

A further assay addresses T2, TRα (Homo sapiens, UniProt P10827).
T2 construct: expressed in transfected cells; host or cells: HEK293
T2 sequence (P10827 1-410 isoform P10827-2): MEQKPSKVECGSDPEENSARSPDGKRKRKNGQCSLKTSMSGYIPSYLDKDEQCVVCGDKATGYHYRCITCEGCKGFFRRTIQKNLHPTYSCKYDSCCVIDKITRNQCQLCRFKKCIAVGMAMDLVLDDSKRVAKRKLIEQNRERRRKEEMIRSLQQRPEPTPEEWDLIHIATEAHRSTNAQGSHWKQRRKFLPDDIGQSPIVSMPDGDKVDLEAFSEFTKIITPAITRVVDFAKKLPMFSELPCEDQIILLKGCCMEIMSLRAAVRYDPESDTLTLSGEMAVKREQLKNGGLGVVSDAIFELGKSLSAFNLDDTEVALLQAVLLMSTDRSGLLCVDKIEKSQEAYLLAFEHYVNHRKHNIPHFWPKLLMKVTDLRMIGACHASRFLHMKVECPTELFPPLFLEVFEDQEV
Description: TR reporter-gene assay (Gal4 DBD hybrid, luciferase), TRα. It is filed as cell-based. The conditions noted are these: HEK293-derived reporter cells, 24 hr treatment; read-out: TRα EC50. The procedure, abridged:
as §1

Usually EC50 stands for the concentration giving half of the maximal effect. Turning to `C/C(=C\c1cc(C)c(Cc2ccc(O)c(C(C)C)c2F)c(Cl)c1)C(=O)O` [Compound 248, (E)-3-(3-chloro-4-(2-fluoro-4-hydroxy-3-isopropylbenzyl)-5-methylphenyl)-2-methylacrylic acid], the EC50 on TRβ and on TRα was 10 to 100 nM each time. Further, the “T3-SI (selectivity index, EC50 (TRα)/EC50 (TRβ))” value on TRβ was “+ (T3-SI ≤ 3×)”.

On to `Cc1cc(SCC(=O)O)c(F)c(Cl)c1Cc1ccc(O)c(C(C)C)c1` [Compound 225, 2-((3-chloro-2-fluoro-4-(4-hydroxy-3-isopropylbenzyl)-5-methylphenyl)thio)acetic acid], for which the EC50 at TRβ and on TRα was 100 to 1000 nM throughout. In addition, the “T3-SI (selectivity index, EC50 (TRα)/EC50 (TRβ))” value on TRβ was “++ (3× < T3-SI ≤ 30×)”.

For the compound `CC(C)c1c(O)ccc(Cc2c(Cl)cc(CCC(=O)O)cc2Cl)c1F` [Compound 40, 3-(3,5-dichloro-4-(2-fluoro-4-hydroxy-3-isopropylbenzyl)phenyl)propanoic acid], on TRβ, the EC50 was less than 10 nM and the “T3-SI (selectivity index, EC50 (TRα)/EC50 (TRβ))” value is “++ (3× < T3-SI ≤ 30×)”. Besides, the EC50 at TRα was less than 10 nM.

For `CC(C)c1cc(Cc2c(Cl)cc(SCC(=O)O)cc2Cl)ccc1O` [Compound 91, 2-((3,5-dichloro-4-(4-hydroxy-3-isopropylbenzyl)phenyl)thio)acetic acid], at TRβ, the EC50 lay in the range of 100 to 1000 nM and the “T3-SI (selectivity index, EC50 (TRα)/EC50 (TRβ))” value is “++ (3× < T3-SI ≤ 30×)”. Besides, the EC50 at TRα lay in the range of 100 to 1000 nM.

In the case of `CC(C)c1cc(Cc2c(Cl)cc(S(=O)(=O)CC(=O)O)cc2Cl)ccc1O` [Compound 93, 2-((3,5-dichloro-4-(4-hydroxy-3-isopropylbenzyl)phenyl)sulfonyl)acetic acid], the EC50 on TRβ and at TRα was more than 1000 nM throughout. Also, at TRβ, the “T3-SI (selectivity index, EC50 (TRα)/EC50 (TRβ))” value is “++ (3× < T3-SI ≤ 30×)”.

For the compound `CC(C)c1cc(Cc2c(Cl)cc(C[S+]([O-])CC(=O)O)cc2Cl)ccc1O` (stereo not drawn) [Compound 96, 2-((3,5-dichloro-4-(4-hydroxy-3-isopropylbenzyl)benzyl)sulfinyl)acetic acid], at TRβ, the EC50 is more than 1000 nM and the “T3-SI (selectivity index, EC50 (TRα)/EC50 (TRβ))” value is “+ (T3-SI ≤ 3×)”. At TRα, the EC50 is more than 1000 nM.

Take `CC(C)c1cc(Cc2c(Cl)cc(C[S+]([O-])CC(=O)O)cc2Cl)ccc1O` (stereo not drawn) [Compound 210, 2-((3,5-dichloro-4-(4-hydroxy-3-isopropylbenzyl)benzyl)sulfinyl)acetic acid]: at TRβ, the EC50 was more than 1000 nM and the “T3-SI (selectivity index, EC50 (TRα)/EC50 (TRβ))” value was “++ (3× < T3-SI ≤ 30×)”. The EC50 at TRα was more than 1000 nM.

In the case of `O=C(O)CCc1cc(Cl)c(Cc2ccc(O)c(-c3cc(OC(F)F)ccc3F)c2F)c(Cl)c1` [Compound 44, 3-(3,5-dichloro-4-((5′-(difluoromethoxy)-2,2′-difluoro-6-hydroxy-[1,1′-biphenyl]-3-yl)methyl)phenyl)propanoic acid], at TRβ, the EC50 is less than 10 nM and the “T3-SI (selectivity index, EC50 (TRα)/EC50 (TRβ))” value is “++ (3× < T3-SI ≤ 30×)”. At TRα, the EC50 was in the range of 10 to 100 nM.

Take `CON(C)C(=O)CCc1cc(Cl)c(Cc2ccc(O)c(C(C)C)c2F)c(Cl)c1` [Compound 107, 3-(3,5-dichloro-4-(2-fluoro-4-hydroxy-3-isopropylbenzyl)phenyl)-N-methoxy-N-methylpropanamide]: at TRβ, the EC50 is 100 to 1000 nM and the “T3-SI (selectivity index, EC50 (TRα)/EC50 (TRβ))” value was “++ (3× < T3-SI ≤ 30×)”. Moreover, the 50% effective concentration (EC50) at TRα fell in the range of 100 to 1000 nM.

As to `CC(c1ccc(F)cc1)c1c(O)ccc(Cc2c(Cl)cc(CCC(=O)O)cc2Cl)c1F` (stereo not drawn) [Compound 18, 3-(3,5-dichloro-4-(2-fluoro-3-(1-(4-fluorophenyl)ethyl)-4-hydroxybenzyl)phenyl)propanoic acid], on TRβ, the half-maximal effective concentration (EC50) is 10 to 100 nM and the “T3-SI (selectivity index, EC50 (TRα)/EC50 (TRβ))” value is “+ (T3-SI ≤ 3×)”. Moreover, the EC50 at TRα was in the range of 10 to 100 nM.

Consider `CC(C)c1cc(Cc2c(Cl)cc(CCC(=O)O)c(F)c2Cl)ccc1O` [Compound 65, 3-(3,5-dichloro-2-fluoro-4-(4-hydroxy-3-isopropylbenzyl)phenyl)propanoic acid], for which the EC50 on TRβ and at TRα was 10 to 100 nM in each case. Besides, on TRβ, the “T3-SI (selectivity index, EC50 (TRα)/EC50 (TRβ))” value was “++ (3× < T3-SI ≤ 30×)”.

With `CC(C)c1c(O)ccc(Cc2c(Cl)cc(CNCC(=O)O)cc2Cl)c1F` [Compound 110, (3,5-dichloro-4-(2-fluoro-4-hydroxy-3-isopropylbenzyl)benzyl)glycine], on TRβ, the EC50 fell in the range of 100 to 1000 nM and the “T3-SI (selectivity index, EC50 (TRα)/EC50 (TRβ))” value is “+ (T3-SI ≤ 3×)”. The concentration giving a half-maximal response (EC50) on TRα lay within 10 to 100 nM.

As to `Cc1cc(NCC(=O)O)c(F)c(Cl)c1Cc1ccc(O)c(C(C)C)c1` [Compound 222, (3-chloro-2-fluoro-4-(4-hydroxy-3-isopropylbenzyl)-5-methylphenyl)glycine], at TRβ, the EC50 is 10 to 100 nM and the “T3-SI (selectivity index, EC50 (TRα)/EC50 (TRβ))” value was “++ (3× < T3-SI ≤ 30×)”. Moreover, the concentration giving a half-maximal response (EC50) at TRα lay within 10 to 100 nM.

Turning to `CONC(=O)CCc1cc(Cl)c(Cc2ccc(O)c(C(C)C)c2F)c(Cl)c1` [Compound 106, 3-(3,5-dichloro-4-(2-fluoro-4-hydroxy-3-isopropylbenzyl)phenyl)-N-methoxypropanamide], on TRβ, the EC50 was 10 to 100 nM and the “T3-SI (selectivity index, EC50 (TRα)/EC50 (TRβ))” value is “++ (3× < T3-SI ≤ 30×)”. Besides, the EC50 on TRα is 10 to 100 nM.

On to `CC(C)c1c(O)ccc(Cc2c(Cl)cc(OCCCCC(=O)O)cc2Cl)c1F` [Compound 54, 5-(3,5-dichloro-4-(2-fluoro-4-hydroxy-3-isopropylbenzyl)phenoxy)pentanoic acid], for which the half-maximal effective concentration (EC50) at TRβ and at TRα was 10 to 100 nM in each case. Also, the “T3-SI (selectivity index, EC50 (TRα)/EC50 (TRβ))” value at TRβ is “+ (T3-SI ≤ 3×)”.

As for `CC(C)c1cc(Cc2c(Cl)cc(CS(=O)(=O)CC(=O)O)cc2Cl)ccc1O` [Compound 97, 2-((3,5-dichloro-4-(4-hydroxy-3-isopropylbenzyl)benzyl)sulfonyl)acetic acid], on TRβ, the EC50 was more than 1000 nM and the “T3-SI (selectivity index, EC50 (TRα)/EC50 (TRβ))” value is “++ (3× < T3-SI ≤ 30×)”. In addition, the EC50 at TRα is more than 1000 nM.

With `CC(C)c1c(O)ccc(Cc2c(Cl)cc(CC3NC(=O)NC3=O)cc2Cl)c1F` (stereo not drawn) [Compound 206, 5-(3,5-dichloro-4-(2-fluoro-4-hydroxy-3-isopropylbenzyl)benzyl)imidazolidine-2,4-dione], at TRβ, the EC50 is more than 1000 nM and the “T3-SI (selectivity index, EC50 (TRα)/EC50 (TRβ))” value is “+++ (T3-SI > 30×)”. Also, the EC50 at TRα is more than 1000 nM.

For `CC(C)c1c(O)ccc(Cc2c(Cl)cc(CC(=O)O)c(F)c2Cl)c1F` [Compound 69, 2-(3,5-dichloro-2-fluoro-4-(2-fluoro-4-hydroxy-3-isopropylbenzyl)phenyl)acetic acid], at TRβ, the EC50 is less than 10 nM and the “T3-SI (selectivity index, EC50 (TRα)/EC50 (TRβ))” value was “++ (3× < T3-SI ≤ 30×)”. For the same compound, the EC50 at TRα fell in the range of 10 to 100 nM.

Turning to `CC(C)c1c(O)ccc(Cc2c(Cl)cc(NCC(=O)O)c(F)c2Cl)c1F` [Compound 78, (3,5-dichloro-2-fluoro-4-(2-fluoro-4-hydroxy-3-isopropylbenzyl)phenyl)glycine], at TRβ, the EC50 is less than 10 nM and the “T3-SI (selectivity index, EC50 (TRα)/EC50 (TRβ))” value is “++ (3× < T3-SI ≤ 30×)”. On TRα, the half-maximal effective concentration (EC50) is less than 10 nM.

For `Cc1c(F)c(NCC(=O)O)cc(Cl)c1Cc1ccc(O)c(C(C)C)c1F` [Compound 133, (5-chloro-2-fluoro-4-(2-fluoro-4-hydroxy-3-isopropylbenzyl)-3-methylphenyl)glycine], the EC50 at TRβ and at TRα was less than 10 nM in each case. The “T3-SI (selectivity index, EC50 (TRα)/EC50 (TRβ))” value on TRβ is “++ (3× < T3-SI ≤ 30×)”.

On to `CC(C)c1cc(Cc2c(Cl)cc(CNCC(=O)O)cc2Cl)ccc1O` [Compound 30, (3,5-dichloro-4-(4-hydroxy-3-isopropylbenzyl)benzyl)glycine], for which, on TRβ, the EC50 lay within 100 to 1000 nM and the “T3-SI (selectivity index, EC50 (TRα)/EC50 (TRβ))” value is “+ (T3-SI ≤ 3×)”. Besides, at TRα, the half-maximal effective concentration (EC50) lay in the range of 100 to 1000 nM.

On to `CC(C)c1cc(Cc2c(Cl)cc(CSCC(=O)O)cc2Cl)ccc1O` [Compound 95, 2-((3,5-dichloro-4-(4-hydroxy-3-isopropylbenzyl)benzyl)thio)acetic acid], for which, on TRβ, the EC50 fell in the range of 100 to 1000 nM and the “T3-SI (selectivity index, EC50 (TRα)/EC50 (TRβ))” value was “++ (3× < T3-SI ≤ 30×)”. In addition, on TRα, the EC50 was in the range of 10 to 100 nM.

Turning to `Cc1cc(CCC(=O)O)cc(Cl)c1Cc1ccc(O)c(C(C)C)c1F` [Compound 249, 3-(3-chloro-4-(2-fluoro-4-hydroxy-3-isopropylbenzyl)-5-methylphenyl)propanoic acid], on TRβ, the EC50 lay within 10 to 100 nM and the “T3-SI (selectivity index, EC50 (TRα)/EC50 (TRβ))” value is “++ (3× < T3-SI ≤ 30×)”. Moreover, the EC50 at TRα was in the range of 10 to 100 nM.

For `CC(C)c1cc(Cc2c(Cl)cc(NC(=O)CC(=O)O)cc2Cl)ccc1O` [Compound 22, 3-((3,5-dichloro-4-(4-hydroxy-3-isopropylbenzyl)phenyl)amino)-3-oxopropanoic acid], at TRβ, the EC50 lay in the range of 100 to 1000 nM and the “T3-SI (selectivity index, EC50 (TRα)/EC50 (TRβ))” value is “++ (3× < T3-SI ≤ 30×)”. The EC50 at TRα fell in the range of 100 to 1000 nM.
